Experiments:
Csnk2 = Csnk2 inhibitors listed as examples; cited from earlier work
[1] = tested on: mouse embryonic fibroblasts (MEFs); details: U0126 treatment, data not shown
colonic IECs [2] = assay: Colonic IEC proliferation and apoptosis immunostaining (Ki67, caspase-3), wild-type mice; type: in vivo, mouse
From the text: (§1) Mice and reagents. The Nlrp6-3xFlag-IRES-eGFP mouse was generated at the Institut Clinique de la Souris (Illkirch, France; further details available upon request). Age- and gender-matched Nlrp6-deficient (Nlrp6−/−) and control C57BL6/J mice had free access to a standard laboratory chow diet in a half-day light cycle exposure and temperature-controlled environment. All animal studies were approved by the local investigational review board (CEEA232009R) in an accredited establishment (N° B59-108) according to governmental guidelines N° 86/609/CEE. The experimental model of colitis was performed as previously described 10. Tissue and blood sampling was performed under LD conditions, with ZTO being the start of the light period (8 a.m.) and ZT12 the vespertinal crepuscule (8 p.m.). Apigenin (750 μg/mouse; Santa Cruz) was intraperitoneally given twice a week at ZT6 for 1 or 3 weeks period.
(§2) Immunohistochemistry, Immunofluorescence and histological analysis. Intestinal tissue was fixed in formalin, dehydrated in series of increasing concentration of alcohols and toluene before being embedded in paraffin. For immunohistochemistry, 5 μm-thick tissue sections were placed on Superfrost Plus slides (Thermo Scientific), incubated for 10 min at 60° C. and rehydrated through a series of graded alcohols and distilled water. Endogenous peroxidases were blocked by 3% hydrogen peroxide for 10 min. […]

DSS-induced colitis [3] = assay: DSS colitis model in wild-type mice pre-treated with apigenin; type: in vivo, mouse
From the text: as §1
Immunohistochemistry, Immunofluorescence and histological analysis. Intestinal tissue was fixed in formalin, dehydrated in series of increasing concentration of alcohols and toluene before being embedded in paraffin. For immunohistochemistry, 5 μm-thick tissue sections were placed on Superfrost Plus slides (Thermo Scientific), incubated for 10 min at 60° C. and rehydrated through a series of graded alcohols and distilled water. Endogenous peroxidases were blocked by 3% hydrogen peroxide for 10 min. Antigen retrieval was performed in citrate buffer (10 mM, pH 6) by steaming sections in a microwave oven for 20 min. Tissue sections were blocked with 5% BSA/PBS for 30 min at RT and primary Ab against either Ki67 (1:100, ab15580, Abcam), M2 Ab to Flag (1:100, F3165, Sigma) or cleaved caspase3 (1:50, 9661, Cell Signalling) was directly applied and incubated one hour at room temperature (RT) or overnight at 4° C. Slides were washed 3× in PBS before applying either secondary peroxidase-conjugated goat anti-rabbit IgG (1:100, Interchim) or peroxidase conjugated goat anti-mouse IgG (1:100, Interchim) Ab two hours at RT. Targeted antigens were visualized by using 3.3′-diaminobenzidine solution (BD Pharmingen) followed by nuclear counterstain with hematoxylin. Immunofluorescence staining procedure was done by incubation overnight at 4° C. of primary antibody against Lysozyme (A0099, Dako) at 1:1000 according to the protocol provided by Cell Signalling Technology. Secondary Ab (1:200, A11008, Life Technologies) was applied for 1 hour at RT followed by nuclear counterstain with DAPI. Tissue sections were covered by using ProLong® Gold Antifade reagent (Life Technologies). Microscopic analyses were performed by using the Zeiss Axioplan 2 imaging microscope, Axio Imager Z1 microscope, Axiovision software (all from Zeiss, Oberkochen, Germany), and ImageJ software. Staining of cryosections […] was performed to stain GFP on colonic tissue according to manufacturer's instructions (Cell Signaling Technology). Polyclonal rabbit anti-GFP Ab (1/1000, Molecular Probes) and monoclonal rat anti-integrin 6 Ab (1/100, BD Pharmingen) were used as primary Abs and incubated together on the samples for 3 hours at RT. Secondary AF488-coupled goat anti-rabbit Ab and AF594-coupled goat anti-rat Ab (1:500, Molecular Probes) applied for 1 hour at RT followed by counterstain with DAPI. Sections were covered with Mowiol.

gut microbiota [4] = assay: 16S rRNA gene sequencing of gut microbiota, Nlrp6-deficient mice; type: in vivo, mouse; details: apigenin- versus vehicle-treated Nlrp6-deficient mice, ANOSIM p=0.283
From the text: as §1, with “Tissue and blood sampling was performed under LD conditions, with ZTO being the start of the light period (8 a.m.) and ZT12 the vespertinal crepuscule (8 p.m.). Apigenin (750 μg/mouse; Santa Cruz) was intraperitoneally given twice a week at ZT6 for 1 or 3 weeks period.” left out
Microbiota analysis. […] Amplicons quantities were normalized using SEQUALPREP™ kit (Invitrogen) and pooled as a single library. […] Sequencing reads were primarily processed for quality control using the software MOTHUR. Forward and reverse reads were assembled to form contigs, reads not having perfectly matched specific primers and barcodes, having any ambiguous base and more than 8 homopolymers were removed from downstream analysis. Sequences not aligning to desired bacterial V3-V4 variable regions, suspected chimera and likely to be of non-bacterial origin were detected and removed. […] Indicator analysis was performed to identify prominent OTUs contributing to the differences between analysed groups. […] Statistical differences were determined by non-parametric Mann-Whitney Test.

DSS-induced colitis [5] = assay: DSS colitis model in Nlrp6-deficient mice pre-treated with apigenin; type: in vivo, mouse
From the text: as §1
Immunohistochemistry, Immunofluorescence and histological analysis. Intestinal tissue was fixed in formalin, dehydrated in series of increasing concentration of alcohols and toluene before being embedded in paraffin. For immunohistochemistry, 5 μm-thick tissue sections were placed on Superfrost Plus slides (Thermo Scientific), incubated for 10 min at 60° C. and rehydrated through a series of graded alcohols and distilled water. Endogenous peroxidases were blocked by 3% hydrogen peroxide for 10 min. Antigen retrieval was performed in citrate buffer (10 mM, pH 6) by steaming sections in a microwave oven for 20 min. Tissue sections were blocked with 5% BSA/PBS for 30 min at RT and primary Ab against either Ki67 (1:100, ab15580, Abcam), M2 Ab to Flag (1:100, F3165, Sigma) or cleaved caspase3 (1:50, 9661, Cell Signalling) was directly applied and incubated one hour at room temperature (RT) or overnight at 4° C. Slides were washed 3× in PBS before applying either secondary peroxidase-conjugated goat anti-rabbit IgG (1:100, Interchim) or peroxidase conjugated goat anti-mouse IgG (1:100, Interchim) Ab two hours at RT. […]

gut microbiota [6] = assay: 16S rRNA gene sequencing of gut microbiota, wild-type mice; type: in vivo, mouse
From the text: as §1
Microbiota analysis. 16S rRNA gene variable region V3 and V4 was amplified using dual indexed fusion primers, in brief primers consist of illumina linker sequence, 12 base barcode sequence and heterogeneity spacer followed by either 16S rRNA gene specific forward (319F: […]; SEQ ID NO: 1) or reverse (806R: […]; SEQ ID NO: 2) primer sequences 29. […] Amplicons quantities were normalized using SEQUALPREP™ kit (Invitrogen) and pooled as a single library. […] Sequencing reads were primarily processed for quality control using the software MOTHUR. Forward and reverse reads were assembled to form contigs, reads not having perfectly matched specific primers and barcodes, having any ambiguous base and more than 8 homopolymers were removed from downstream analysis. Sequences not aligning to desired bacterial V3-V4 variable regions, suspected chimera and likely to be of non-bacterial origin were detected and removed. […] Indicator analysis was performed to identify prominent OTUs contributing to the differences between analysed groups. Non parametric Shannon index of diversity was calculated as a measure of alpha diversity index. Statistical differences were determined by non-parametric Mann-Whitney Test.

clock machinery genes = assay: Microarray and qRT-PCR gene expression after apigenin administration; type: in vivo, mouse
From the text: as §1
Gene expression and microarray analysis. […] The resulting cDNA (equivalent to 5 ng of total RNA) was amplified using the SYBR Green real-time PCR kit and detected on a Stratagene Mx3005P (Agilent Technologies). […] Relative mRNA levels (2-Ct) were determined by comparing (a) the PCR cycle thresholds (Ct) for the gene of interest and Actb (ΔCt) and (b) ΔCt values for treated and control groups (ΔCt). […]

colonic IECs [7] = assay: Colonic IEC proliferation immunostaining (Ki67), Nlrp6-deficient mice; type: in vivo, mouse; details: three-week regimen of apigenin
From the text: as §1, §2

[8] = wild-type mice, DSS, apigenin administration

**Q.** For Brc1c(Br)c(Br)c2[nH]cnc2c1Br [TBI, 4,5,6,7-1H-tetrabromobenzimidazole], which Ki (Csnk2) is on record?
**A.** Its Ki is 300 nM.

**Q.** Which IC50 (Csnk2) does the source give for O=C1C=C2CC3(O)COc4c(ccc(O)c4O)C3=C2C=C1O (stereo not shown) [hematein, 3,4,6a,10-tetrahydroxy-6,7-dihydroindeno[2,1-c] chromen-9-one] here?
**A.** The IC50 was 550 nM.

**Q.** For O=C(O)/C=C/c1ccc[c]([Sb](=[O])([OH])[OH])c1 [compound 10, (E)-3-(3-stibonophenyl)prop-2-enoic acid], which IC50 (Csnk2) is on record?
**A.** The IC50 was 150 nM.

**Q.** For O=C(O)c1c[nH]c2c(Cl)cc(Cl)c(Cl)c2c1=O [compound 7, 5,6,8-trichloro-4-oxo-1,4-dihydroquinoline-3-carboxylic acid], which Ki (Csnk2) is on record?
**A.** The Ki was 60 nM.

**Q.** With O=c1c2c(O)cccc2oc2c([N+](=O)[O-])ccc(O)c12 [MNX, 1,8-dihydroxy-4-nitro-xanthen-9-one] as the compound, how does the Ki (Csnk2) read?
**A.** The Ki was 800 nM.

**Q.** For O=C(O)/C=C/c1cc(Br)c(Br)c(Br)c1Br [TBCA, (E)-3-(2,3,4,5-tetrabromophenyl)acrylic acid], which Ki (Csnk2) is on record?
**A.** The Ki was 77 nM.

**Q.** Which IC50 (Csnk2) does the source give for O=C(O)Cc1c2ccccc2n2c1[nH]c(=O)c1ccccc12 [IQA, 5-oxo-5,6-dihydroindolo-(1,2-a) quinazolin-7-yl acetic acid] here?
**A.** The IC50 was 390 nM.

**Q.** With N#CC(=C(/N)Sc1ccccc1N)/C(C#N)=C(\N)Sc1ccccc1N [U0126] as the compound, how does the “growth rate of treated wild-type MEFs versus similarly treated Nlrp6-deficient MEFs” value [1] read?
**A.** The value was “comparable”.

**Q.** For O=C(O)c1c(Br)c(Br)c(Br)c(Br)c1-c1c2ccc(=O)cc-2oc2cc(O)ccc12 [compound 35, 2,3,4,5-tetrabromo-6-(6-hydroxy-3-oxo-3H-xanthen-9-yl)-benzoic acid], which IC50 (Csnk2) is on record?
**A.** Its IC50 is 80 nM.

**Q.** For Cc1ccc2c(c1S(=O)(=O)O)SC(c1ccc3c(c1)SC(c1ccc(N(C)C)cc1)N3C)N2C (stereo not shown) [compound 1, 2′-(4-Dimethylamino-phenyl)-3,6,3′-trimethyl-[2,6′]bibenzothiazolyl-7-sulfonic acid], which IC50 (Csnk2) is on record?
**A.** Its IC50 is 500 nM.

**Q.** Which IC50 (Csnk2) does the source give for O=C(O)c1cc(Br)c(Br)c(Br)c1 [compound 26, 3,4,5 tribromobenzoic acid] here?
**A.** Its IC50 is 640 nM.

**Q.** Which “number of caspase-3 positive IECs” value (colonic IECs [2]; three-week regimen of apigenin) does the source give for O=c1cc(-c2ccc(O)cc2)oc2cc(O)cc(O)c12 [apigenin, 4′,5,7-trihydroxyflavone] here?
**A.** Its value is “without any change”.

**Q.** What about the “IEC proliferation (Ki67 Ab staining)” value (colonic IECs [2]; three-week regimen of apigenin (750 μg/mouse, twice a week)) of the same compound?
**A.** The value was “lowered IEC proliferation”.

**Q.** What about the anti-inflammatory effect (DSS-induced colitis [3]; mice housed in darkness for three circadian cycles during DSS exposure) of the same compound?
**A.** Its anti-inflammatory effect is “no anti-inflammatory effect”.

**Q.** What about the body-weight loss (DSS-induced colitis [3]; wild-type mice on LD cycles, apigenin 3 weeks (750 μg/mouse, twice a week) before 2% DSS) of the same compound?
**A.** The body-weight loss was “less severe body-weight loss”.

**Q.** What about the colon length (DSS-induced colitis [3]; [8]) of the same compound?
**A.** Its colon length is “greater colon length”.

**Q.** And the disease-activity index (DSS-induced colitis [3]; [8])?
**A.** Its disease-activity index is “lower disease-activity index”.

**Q.** And the “infiltration of inflammatory cells (H&E-stained colon sections)” value (DSS-induced colitis [3]; wild-type mice, DSS, versus controls)?
**A.** The value was “reduced infiltration of inflammatory cells”.

**Q.** And the “global changes in the composition of the gut microbiota” value (gut microbiota [4])?
**A.** The value was “failed to observe global changes”.

**Q.** What about the “wasting disease (body weight loss)” value (DSS-induced colitis [5]; apigenin 3 weeks before 2% DSS) of the same compound?
**A.** The value was “failed to improve wasting disease”.

**Q.** And the colon length (DSS-induced colitis [5]; apigenin, DSS)?
**A.** Its colon length is “did not alter colon length”.

**Q.** And the “inflammation in histological analysis” value (DSS-induced colitis [5]; apigenin, DSS)?
**A.** The value was “had no effect on inflammation”.

**Q.** And the “Clostridium sensu stricto and unclassified Ruminococcacceae” value (gut microbiota [6]; apigenin treatment in wild-type mice)?
**A.** Its value is “reduction”.

**Q.** What about the “genera derived from Bacteroidetes (Alistipes, Parasatuerlla, Bacteroides)” value (gut microbiota [6]; apigenin-induced changes among bacterial OTUs) of the same compound?
**A.** The value was “expansion”.

**Q.** What about the “gut microbiota composition versus controls” value (gut microbiota [6]; apigenin-treated wild-type mice, ANOSIM on Jaccard distances, p=0.015) of the same compound?
**A.** The value was “markedly different”.

**Q.** And the “colonic transcript levels of several clock machinery genes (qRT-PCR)” value (clock machinery genes; apigenin administration, through Nlrp6)?
**A.** The value was “significantly influenced”.

**Q.** What about the “genes differentially expressed (microarray)” value (clock machinery genes; wild-type mice, Logfc of 1.5, upon apigenin administration) of the same compound?
**A.** The value was 54.

**Q.** What about the “anti-proliferative effect (Ki67)” value (colonic IECs [7]) of the same compound?
**A.** The value was “abrogated”.

**Q.** With CC(C(=O)O)N1C(=O)c2c(I)c(I)c(I)c(I)c2C1=O (stereo not shown) [TID46, 2-(4,5,6,7-tetraiodo-1,3-dioxo-1,3-dihydro-2Hisoindol-2-yl)propanoic acid] as the compound, how does the IC50 (Csnk2) read?
**A.** The IC50 was 150 nM.

**Q.** Which IC50 (Csnk2) does the source give for O=C(O)c1ccc2c(c1)nc(Nc1cccc(Cl)c1)c1ccncc12 [CX-4945, 5-(3-Chloro-phenylamino)-benzo[c] [2,6] naphthyridine-8-carboxylicacid] here?
**A.** Its IC50 is 2 nM.

**Q.** With Cc1cc(O)c2c(c1)C(=O)c1cc(O)cc(O)c1C2=O [emodin, 6-methyl-1,3,8-trihydroxyanthraquinone] as the compound, how does the Ki (Csnk2) read?
**A.** Its Ki is 1500 nM.
